From patent US20230192650A1, “NOVEL ACID SECRETION INHIBITOR AND USE THEREOF” (Ildong Pharmaceutical Co., Ltd., priority 2020, published 2023)
Like-named read-outs stand apart in the source and are kept apart here.

What was measured:
[1] = Pharmacokinetic test in rats; type: in vivo; conditions: blood, rat; for bioavailability: oral 10 mg/kg vs intravenous 5 mg/kg, read-out: F (%) bioavailability; for AUC(0-inf): single oral dose 10 mg/kg
Procedure: (§1) The Example compound was dissolved in PBS containing 5% DMSO and 20% hydroxypropyl (HP) beta cyclodextrin, and administered intravenously to rats at a dose of 5 mg/kg, and the Example compound was suspended in distilled water containing 0.5% methylcellulose, and orally administered to rats at a dose of 10 mg/kg. The Example compound was dissolved in PBS containing 5% DMSO and 20% hydroxypropyl (HP) beta cyclodextrin, and administered intravenously to beagle dogs at a dose of 5 mg/kg, and the Example compound was suspended in distilled water containing 0.5% methylcellulose, and orally administered to beagle dogs at a dose of 10 mg/kg. Blood samples were collected at scheduled time points after the single intravenous and oral administration of the Example compound to normal rats and beagle dogs. Acetonitrile containing an internal standard material was added to the collected blood sample for protein precipitation. The sample extracted through protein precipitation was centrifuged, and then the supernatant was injected into LC-MS/MS to be subjected to quantitative analysis of the blood concentration of the Example compound. The AUC for each administration route was calculated based on the blood concentration-time profile obtained as a result above, and based on this, the bioavailability (F) upon oral administration was calculated.

[2] = molecular target: T1, proton pump (H+/K+-ATPase) (Sus scrofa, UniProt P19156); assay: Reversibility of proton pump inhibition by jump dilution method; type: biochemical, pig; conditions: 0.2 μM compound
T1 construct: Gastric vesicles isolated from pig stomach were prepared according to the document; from tissue; host or cells: pig stomach (gastric vesicles)
T1 sequence (P19156 2-1034 limits assumed): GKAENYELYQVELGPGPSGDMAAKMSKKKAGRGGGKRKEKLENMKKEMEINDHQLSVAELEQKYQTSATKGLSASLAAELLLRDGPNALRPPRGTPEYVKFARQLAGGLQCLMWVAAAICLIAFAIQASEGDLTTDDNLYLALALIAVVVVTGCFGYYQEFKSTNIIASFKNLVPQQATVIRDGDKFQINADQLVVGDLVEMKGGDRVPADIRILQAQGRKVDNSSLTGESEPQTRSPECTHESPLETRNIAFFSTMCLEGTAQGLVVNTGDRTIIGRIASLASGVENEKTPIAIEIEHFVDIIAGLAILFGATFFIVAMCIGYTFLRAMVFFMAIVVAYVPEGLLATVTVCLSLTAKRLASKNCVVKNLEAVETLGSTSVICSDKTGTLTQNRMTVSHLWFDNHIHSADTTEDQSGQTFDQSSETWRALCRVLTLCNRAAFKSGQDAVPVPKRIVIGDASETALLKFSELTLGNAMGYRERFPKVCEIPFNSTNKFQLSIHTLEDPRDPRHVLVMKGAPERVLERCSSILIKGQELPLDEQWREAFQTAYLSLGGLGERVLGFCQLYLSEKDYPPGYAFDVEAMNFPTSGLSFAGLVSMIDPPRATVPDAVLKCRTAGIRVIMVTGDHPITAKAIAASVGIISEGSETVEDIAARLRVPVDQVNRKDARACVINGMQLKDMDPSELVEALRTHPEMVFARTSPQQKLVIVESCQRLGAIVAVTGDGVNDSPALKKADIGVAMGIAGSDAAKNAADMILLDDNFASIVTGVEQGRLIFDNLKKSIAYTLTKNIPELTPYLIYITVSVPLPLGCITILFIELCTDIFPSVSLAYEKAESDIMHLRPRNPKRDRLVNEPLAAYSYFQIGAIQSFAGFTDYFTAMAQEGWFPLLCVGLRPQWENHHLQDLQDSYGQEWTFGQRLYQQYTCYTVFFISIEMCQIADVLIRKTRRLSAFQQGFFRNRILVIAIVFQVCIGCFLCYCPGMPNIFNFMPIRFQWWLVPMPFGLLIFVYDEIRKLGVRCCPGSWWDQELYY
T1 sequence (P18434 whole entry partner): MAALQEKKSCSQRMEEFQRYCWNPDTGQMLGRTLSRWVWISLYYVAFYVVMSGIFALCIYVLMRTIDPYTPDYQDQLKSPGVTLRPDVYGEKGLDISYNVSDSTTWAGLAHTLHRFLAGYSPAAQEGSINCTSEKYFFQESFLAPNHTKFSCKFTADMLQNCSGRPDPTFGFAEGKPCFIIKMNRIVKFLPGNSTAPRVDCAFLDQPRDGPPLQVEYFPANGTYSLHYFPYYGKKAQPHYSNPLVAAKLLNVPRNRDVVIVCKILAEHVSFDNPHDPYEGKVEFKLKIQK
Procedure: In addition, in order to confirm the reversibility of the inhibition ability on the proton pump (H^+/K^+-ATPase) of the prepared compound, an experiment was performed by the jump dilution method. 6.25 μg of gastric vesicles isolated from pig stomach and 0.2 μM of each compound were pre-incubated for 120 minutes, and then the enzyme activity before dilution and the enzyme activity after 50-fold dilution were compared for each reaction time, and the reversibility was evaluated. In both Example 1 and Example 3, the inhibition ability of 50% or more was confirmed after 20 minutes of the reaction. On the other hand, when the reaction was performed for 60 minutes after the 50-fold dilution, in both Examples 1 and 3, the enzyme activity was recovered to 90% or more, and reversible results were confirmed.

[3] = molecular target: T1, proton pump (H+/K+-ATPase); assay: Proton pump (H+/K+-ATPase) inhibitory activity depending on pH; type: biochemical, pig
Procedure: The proton pump (H+/K+-ATPase) inhibitory activity of the prepared compound was measured as follows. Gastric vesicles isolated from pig stomach were prepared according to the document (see Methods Mol Biol. 2016; 1377:19-27). The protein contents of the gastric vesicles were quantified with a Bicinchoninic Acid (BCA) kit (Sigma Aldrich, BCA1). To each well of a 96-well plate, 70 μl of 50 mM Tris-HEPES buffer (pH 6.5) containing 125 ng of vesicles, DMSO or a substance for each concentration (final DMSO concentration of 1%), 5 mM MgCl2, and 10 mM KCl was added and pre-incubated at 37° C. for 30 minutes. Then, 10 μl of 2 mM ATP was added to each well, followed by enzymatic reaction at 37° C. for 40 minutes. The reaction was stopped by adding 20 μl of malachite green reagent (Sigma Aldrich, MAK307) and the resulting mixture was allowed to stand at room temperature for 30 minutes. By measuring the absorbance at 620 nm using a Microplate Reader (Biotek, Synergy H4), an amount of inorganic phosphorus released from ATP degradation was measured and the enzyme activity was measured. The absorbance of the enzyme-reacted sample without adding KCl was measured, and the measurement value was subtracted from all the above measurements. Assuming that the group treated with 1% DMSO (DMSO control group) was 100% H^+/K^+-ATPase enzyme activity, and that the group without KCl (KCl control group) was 0% H^+/K^+-ATPase enzyme activity, % inhibition was calculated as in the following Equation 1: […]
In order to measure the change in proton pump (H+/K+-ATPase) inhibitory activity depending on the pH of the prepared compound, an experiment was performed in the same manner as in Test Example 1 under three conditions of pH 6.5, pH 7.0, and pH 7.5.

[4] = molecular target: human SSTR4 (Homo sapiens, UniProt P31391); assay: SSTR4 agonist effect (cell-based cAMP functional assay, HTRF); conditions: CHO cells stably expressing human SSTR4, 37° C. 30 minutes, vs sst-14 10 nM
Chain of human SSTR4 (P31391 whole entry): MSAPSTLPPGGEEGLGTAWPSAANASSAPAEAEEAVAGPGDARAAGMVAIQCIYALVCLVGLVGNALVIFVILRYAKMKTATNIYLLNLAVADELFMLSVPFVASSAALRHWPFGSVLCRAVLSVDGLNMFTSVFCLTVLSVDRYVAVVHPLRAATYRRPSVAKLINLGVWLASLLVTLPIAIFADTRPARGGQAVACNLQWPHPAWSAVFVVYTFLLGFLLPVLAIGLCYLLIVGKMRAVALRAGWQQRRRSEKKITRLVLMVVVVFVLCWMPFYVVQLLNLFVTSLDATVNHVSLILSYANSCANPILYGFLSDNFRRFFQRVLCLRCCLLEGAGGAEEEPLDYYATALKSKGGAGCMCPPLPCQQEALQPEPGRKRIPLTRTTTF
Procedure: The agonism effect on SSTR4 was confirmed by cell-based cAMP functional assay. CHO cells in which human SSTR4 was stably expressed were treated with test substances for each concentration and reacted at 37° C. for 30 minutes, and an amount of the produced cAMP was measured by the HTRF detection method. The % response compared to the reference control agonist (sst-14, 10 nM) was calculated, and the EC50 was calculated through the concentration-response curve.

[5] = molecular target: T1, proton pump (H+/K+-ATPase); assay: Inhibitory activity on proton pump (H+/K+-ATPase), malachite green assay; type: biochemical; conditions: pig gastric vesicles, pH 6.5
Procedure: The proton pump (H+/K+-ATPase) inhibitory activity of the prepared compound was measured as follows. Gastric vesicles isolated from pig stomach were prepared according to the document (see Methods Mol Biol. 2016; 1377:19-27). The protein contents of the gastric vesicles were quantified with a Bicinchoninic Acid (BCA) kit (Sigma Aldrich, BCA1). To each well of a 96-well plate, 70 μl of 50 mM Tris-HEPES buffer (pH 6.5) containing 125 ng of vesicles, DMSO or a substance for each concentration (final DMSO concentration of 1%), 5 mM MgCl2, and 10 mM KCl was added and pre-incubated at 37° C. for 30 minutes. Then, 10 μl of 2 mM ATP was added to each well, followed by enzymatic reaction at 37° C. for 40 minutes. The reaction was stopped by adding 20 μl of malachite green reagent (Sigma Aldrich, MAK307) and the resulting mixture was allowed to stand at room temperature for 30 minutes. By measuring the absorbance at 620 nm using a Microplate Reader (Biotek, Synergy H4), an amount of inorganic phosphorus released from ATP degradation was measured and the enzyme activity was measured. The absorbance of the enzyme-reacted sample without adding KCl was measured, and the measurement value was subtracted from all the above measurements. Assuming that the group treated with 1% DMSO (DMSO control group) was 100% H^+/K^+-ATPase enzyme activity, and that the group without KCl (KCl control group) was 0% H^+/K^+-ATPase enzyme activity, % inhibition was calculated as in the following Equation 1:
% inhibition=[1−(ODtreatment group−ODKCl control group)/(ODDMSO control group−ODKCl control group))]*100. [Equation 1]
IC50 was obtained by nonlinear regression analysis of GraphPad Prism7 program using % inhibition values for each concentration, and results thereof are shown in Table 2 below.

[6] = test system: indomethacin-induced gastric damage; assay: Gastric damage inhibitory efficacy in rat of indomethacin-induced gastric damage; type: in vivo; conditions: SD rats, 10 mg/kg oral 1 hour before indomethacin, 5 hours
Procedure: The experiment was performed as follows to evaluate the gastric ulcer inhibitory efficacy of the Example compound in rat models of gastric damage induced by indomethacin, a drug in the NSAID classes.
Among fasted male Sprague Dawley rats, the control group was orally administered with 0.5% methylcellulose solution, and the other groups were orally administered with the Example compound at a dose of 10 mg/10 mL/kg suspended in 0.5% methylcellulose solution.
In 1 hour after oral administration of the Example compound, indomethacin was orally administered, and after 5 hours, the test animals were sacrificed and the stomach was enucleated. After washing the enucleated surface of the stomach, the greater curvature of the stomach was incised. The incised stomach was spread out and fixed. Then, the ratio of the gastric damaged area was obtained by the total gastric area and the damaged area on the gastric mucosa surface using ImageJ software (NIH, Bethesda), and the % inhibitory activity of the Example compound was calculated according to the following Equation 3.
% inhibitory activity of Example compound=[(ratio of gastric damaged area in control group−ratio of gastric damaged area in group treated with Example compound)/(ratio of gastric damaged area in control group)]×100 [Equation 3]

[7] = test system: basal gastric acid secretion; assay: Inhibition of basal gastric acid secretion in pylorus-ligated rat (Shay's rat model); type: in vivo; conditions: SD rats, 10 mg/kg oral 1 h before pylorus ligation, 5 hours after ligation
Procedure: The inhibitory efficacy of the prepared compound on basal gastric acid secretion was measured by employing the Shay's rat model [Shay H, et al., Gastroenterology, 1945, 5, 43˜61].
Male Sprague Dawley (SD) rats were divided into 8 rats per group, and fasted with only water supply for 24 hours. Then, one hour before pylorus ligation, the control group was orally administered with 0.5% methylcellulose solution, and the other groups were orally administered with the Example compound at a dose of 10 mg/10 mL/kg suspended in 0.5% methylcellulose solution.
After 5 hours of ligation, the rats were sacrificed under Zoletil and Xylazine anesthesia, and the gastric contents were enucleated by incision of the abdominal cavity. The obtained contents were centrifuged at 3,000 rpm for 10 minutes to separate only the supernatant, and gastric juice was collected. 1 mL of the collected gastric juice was taken into a beaker and the pH was measured using an electrode pH meter. To 1 mL of gastric juice, 0.03 mL each of 0.5% dimethylaminoazobenzene alcohol solution and 1% phenolphthalein alcohol solution was added to make red color, and then 0.1N NaOH solution was added, wherein the volume until the rose tint appeared was determined as the total acidity, and the total acid output was obtained by multiplying the acidity of gastric juice by the amount of gastric juice. The % inhibitory activity of the Example compound was calculated according to the following Equation 2, and results thereof are shown in Table 6 below.
% inhibitory activity of Example compound=[(total gastric acid secretion in Control group−total gastric acid secretion in group treated with Example compound)/total gastric acid secretion in Control group]×100 [Equation 2]

[8] = Pharmacokinetic test in beagle dogs; type: in vivo; conditions: blood, beagle dog; for bioavailability: oral 10 mg/kg vs intravenous 5 mg/kg, read-out: F (%) bioavailability; for AUC(0-inf): single oral dose 10 mg/kg
Procedure: as §1

[9] = Intragastric distribution test in rats; type: in vivo; conditions: rat, oral 4 mg/kg, 1, 6, 12 and 24 hours
Procedure: After oral administration of the Example compound in normal rats, the intragastric distribution by time was measured as follows. The prepared compound was dissolved in distilled water containing 0.5% methylcellulose to 0.2 mg/mL, and then orally administered at a dosage of 4 mg/kg. Rats were sacrificed at 1 hour, 6 hours, 12 hours, and 24 hours after administration. Then, blood was exsanguinated through the heart and perfused with physiological saline, the gastric tissue was enucleated, weighed, and stored at −80° C. until the point of analysis. PBS buffer was added so that the ratio of gastric tissue weight to PBS buffer was 1:4, and the compound in gastric tissue was extracted using a homogenizer. The supernatant of the extract was taken and was subjected to protein precipitation using acetonitrile, and then an amount of the Example compound was measured using LC-MS/MS.

[10] = after 20 minutes of the reaction, read-out: inhibition ability
[11] = reaction time 20 min, after 50-fold dilution, read-out: % Inhibition
[12] = reaction time 20 min, before dilution, read-out: % Inhibition
[13] = reaction time 60 min, after 50-fold dilution, read-out: % Inhibition
[14] = reaction time 60 min, before dilution, read-out: % Inhibition
[15] = reaction time 120 min, after 50-fold dilution, read-out: % Inhibition
[16] = reaction time 120 min, before dilution, read-out: % Inhibition

bioavailability [1]	AUC(0-inf) [1]	inhibition at 0.2 µM [2, 10]	inhibition at 0.2 µM [2, 11]	inhibition at 0.2 µM [2, 12]	inhibition at 0.2 µM [2, 13]	inhibition at 0.2 µM [2, 14]	inhibition at 0.2 µM [2, 15]	inhibition at 0.2 µM [2, 16]	IC50 ([3]; pH 6.5)	IC50 ([3]; pH 7.0)	IC50 ([3]; pH 7.5)	EC50 [4]	IC50 [5]	bioavailability [8]	AUC(0-inf) [8]	SMILES	Inhibitory Activity (%) on ratio of gastric damaged area [6]	Inhibitory Activity (%) on total gastric acid secretion [7]	pH of gastric juice [7]	other results
27.3%	275 ng·h/mL	≥ 50%	20 to 50%	≥ 50%	< 20%	≥ 50%	< 20%	≥ 50%	≤ 100 nM	100 to 1000 nM	100 to 1000 nM	3900 nM	≤ 300 nM	83.8%	14500 ng·h/mL	CNCc1cn(S(=O)(=O)c2ccc(C)nc2)c(-c2ccc(F)cc2F)c1OC [Example 3, 1-(5-(2,4-Difluorophenyl)-4-methoxy-1-((6-methylpyridin-3-yl)sulfonyl)-1H-pyrrol-3-yl)-N-methylmethanamine]	+++ (97% or more: +++)	+++ (90% or more: +++)	8.08 ± 0.24	inhibition ability depending on pH ([3]; pH 6.5, pH 7.0, pH 7.5 compared): higher inhibition ability in a weakly acidic condition compared to a neutral condition
22%	253 ng·h/mL	≥ 50%	20 to 50%	≥ 50%	< 20%	≥ 50%	< 20%	≥ 50%	≤ 100 nM	≤ 100 nM	100 to 1000 nM	780 nM	≤ 300 nM	71.7%	10200 ng·h/mL	CNCc1cn(S(=O)(=O)c2ccc(OC)nc2)c(-c2ccccc2F)c1OC [Example 1, 1-(5-(2-Fluorophenyl)-4-methoxy-1-((6-methoxypyridin-3-yl)sulfonyl)-1H-pyrrol-3-yl)-N-methylmethanamine]	+++ (97% or more: +++)	+++ (90% or more: +++)	8.25 ± 0.16	concentration in the stomach versus in vitro H+/K+ ATPase IC50 [9]: exceeded ICH of the in vitro H^+/K^+ ATPase inhibition assay at all time points
–	–	–	–	–	–	–	–	–	–	–	–	–	≤ 300 nM	–	–	CNCc1cn(S(=O)(=O)c2ccc(C)nc2)c(-c2ccccc2F)c1OC [Example 4, 1-(5-(2-Fluorophenyl)-4-methoxy-1-((6-methylpyridin-3-yl)sulfonyl)-1H-pyrrol-3-yl)-N-methylmethanamine]	–	–	–	–
–	–	–	–	–	–	–	–	–	–	–	–	–	≤ 300 nM	–	–	CNCc1cn(S(=O)(=O)c2ccc(OC)nc2)c(-c2ccc(F)cc2F)c1OC [Example 2, 1-(5-(2,4-Difluorophenyl)-4-methoxy-1-((6-methoxypyridin-3-yl)sulfonyl)-1H-pyrrol-3-yl)-N-methylmethanamine]	–	+++ (90% or more: +++)	8.04 ± 0.16	–
